Source: US6680323B2, “Dihydropyrimidines and uses thereof” (Synaptic Pharmaceutical Corporation, priority 1998, dated 2004)
Where a name gives a salt, the structure may show the parent alone.

Columns and labels:
[1] = biological target: T1, human α1b receptor (Homo sapiens, UniProt P35368); assay: Radioligand binding ([3H]prazosin) at cloned human α1b receptor; details: membranes of transfected LM(tk−) cells, [3H]prazosin 0.5 nM; read-out: Binding affinity hα1b
T1 construct: The entire coding region of α1b (1563 bp); expressed in transfected cells
T1 sequence (P35368 1-520): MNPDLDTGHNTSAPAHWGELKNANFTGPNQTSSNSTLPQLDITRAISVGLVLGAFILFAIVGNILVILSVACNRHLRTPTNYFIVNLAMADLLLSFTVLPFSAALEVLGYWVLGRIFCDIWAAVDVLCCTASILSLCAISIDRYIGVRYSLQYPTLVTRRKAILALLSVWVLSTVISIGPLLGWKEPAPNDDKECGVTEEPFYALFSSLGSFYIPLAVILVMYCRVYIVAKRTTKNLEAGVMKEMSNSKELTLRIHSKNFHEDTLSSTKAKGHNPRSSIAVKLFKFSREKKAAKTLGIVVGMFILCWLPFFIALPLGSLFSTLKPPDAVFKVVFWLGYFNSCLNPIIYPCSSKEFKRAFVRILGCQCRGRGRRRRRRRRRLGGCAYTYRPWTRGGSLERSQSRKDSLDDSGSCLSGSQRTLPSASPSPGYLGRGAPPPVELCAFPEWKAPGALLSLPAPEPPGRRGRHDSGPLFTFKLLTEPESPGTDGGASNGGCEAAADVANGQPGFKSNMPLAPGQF
Procedure: The activity of compounds at the different human receptors was determined in vitro using cultured cell lines that selectively express the receptor of interest. These cell lines were prepared by transfecting the cloned cDNA or cloned genomic DNA or constructs containing both genomic DNA and cDNA encoding the human α-adrenergic receptors as follows:
α1b Human Adrenergic Receptor
The entire coding region of α1b (1563 bp), including 200 base pairs and 5′ untranslated sequence (5′ UT) and 600 bp of 3′ untranslated sequence (3′ UT), was cloned into the EcoRI site of pCEXV-3 eukaryotic expression vector.
The construct involved ligating the full-length containing EcoRI brainstem cDNA fragment from λ ZapII into the expression vector. Stable cell lines were selected as described above. The cell line used herein was designated L-α1B and was deposited with the American Type Culture Collection, 12301 Parklawn Drive, Rockville, Md. 20852, U.S.A. under the provisions of the Budapest Treaty for the International Recognition of the Deposit of Microorganisms for the Purposes of Patent Procedure. The cell line L-α1B was accorded ATCC Accession No. CR 11139, on Sep. 29, 1992.
Radioligand Binding Assays for α1 Receptors
Transfected cells from culture flasks were scraped into 5 ml of 5 mM Tris-HCl, 5 mM EDTA, pH 7.5, and lysed by sonication. The cell lysates were centrifuged at 1000 rpm for 5 min at 4° C., and the supernatant was centrifuged at 30,000×g for 20 min at 4° C. The pellet was suspended in 50 mM Tris-HCl, 1 mM MgCl2, and 0.1% ascorbic acid at pH 7.5. Binding of the α1 antagonist [^3H]prazosin (0.5 nM, specific activity 76.2 Ci/mmol) to membrane preparations of LM(tk−) cells was done in a final volume of 0.25 ml and incubated at 37° C. for 20 min. Nonspecific binding was determined in the presence of 10 μM phentolamine. The reaction was stopped by filtration through GF/B filters using a cell harvester. Inhibition experiments, routinely consisting of 7 concentrations of the tested compounds, were analyzed using a non-linear regression curve-fitting computer program to obtain Ki values.

[2] = biological target: T2, human α2b receptor (Homo sapiens, UniProt P18089); assay: Competition binding ([3H]rauwolscine) at cloned human α2b receptor; details: transfected LM(tk−) cells, [3H]rauwolscine 0.5 nM; read-out: Binding affinity hα2b
T2 construct: expressed in transfected cells
T2 sequence (P18089 1-450): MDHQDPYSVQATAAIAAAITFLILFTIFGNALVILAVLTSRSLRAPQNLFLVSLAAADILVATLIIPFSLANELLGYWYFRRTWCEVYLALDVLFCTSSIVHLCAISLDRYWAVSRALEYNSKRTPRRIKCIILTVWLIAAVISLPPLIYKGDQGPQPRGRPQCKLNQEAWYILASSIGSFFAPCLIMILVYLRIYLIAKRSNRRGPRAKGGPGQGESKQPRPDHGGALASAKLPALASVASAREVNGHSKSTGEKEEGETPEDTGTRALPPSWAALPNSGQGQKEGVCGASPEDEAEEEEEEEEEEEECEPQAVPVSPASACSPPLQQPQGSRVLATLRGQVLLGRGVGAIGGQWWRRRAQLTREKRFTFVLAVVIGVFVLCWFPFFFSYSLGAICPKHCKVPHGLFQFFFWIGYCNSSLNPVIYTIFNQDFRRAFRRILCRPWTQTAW
Excerpt: α2 Human Adrenergic Receptors
To determine the potency of α1 antagonists at the α2 receptors, LM(tk−) cell lines stably transfected with the genes encoding the α2a, α2b, and α2c receptors were used. The cell line expressing the α2a receptor is designated L-α2A, and was deposited on Nov. 6, 1992 under ATCC Accession No. CRL 11180. The cell line expressing the α2b receptor is designated L-NGC-α2B, and was deposited on Oct. 25, 1989 under ATCC Accession No. CRL10275. The cell line expressing the α2c receptor is designated L-α2C, and was deposited on Nov. 6, 1992 under ATCC Accession No. CRL-11181. All the cell lines were deposited with the American Type Culture Collection, 12301 Parklawn Drive, Rockville, Md. 20852, U.S.A. under the provisions of the Budapest Treaty for the International Recognition of the Deposit of Microorganisms for the Purposes of Patent Procedure. Cell lysates were prepared as described above (see Radioligand Binding Assays), and suspended in 25 mM glycylglycine buffer (pH 7.6 at room temperature). Equilibrium competition binding assay were performed using [3H]rauwolscine (0.5 nM), and nonspecific binding was determined by incubation with 10 μM phentolamine. The bound radioligand was separated by filtration through GF/B filters using a cell harvester.

Row | Compound | Ki [1] [nM] | Ki [2] [nM]
1 | O=C1OCC2=C1C(c1ccc(F)c(F)c1)N(C(=O)NCCCN1CCC(c3ccccn3)CC1)C(=O)N2 (single isomer, unassigned; (+)) [Compound 8, (+)-1-3-{[4-(3,4-Difluorophenyl)-2,5-dioxo-1,2,5,7-tetrahydro-4H-furo[3,4-d]-pyrimidine-3-carbonyl]amino}-propyl-4-(2-pyridyl)-piperidine] | 1600 | 970
2 | COCC1=C(C(=O)OC)[C@H](c2ccc(F)c(F)c2)N(C(=O)NCCCO)C(=O)N1 [Compound 1, (+)-1,2,3,6-Tetrahydro-1-(3-hydroxypropyl)carboxamido-5-methoxycarbonyl-4-methoxymethyl-6-(3,4-difluorophenyl)-2-oxo-pyrimidine] | > 50000 | 26000
3 | COCC1=C(C(=O)OC)[C@H](c2ccc(F)c(F)c2)N(C(=O)NCCCN2CCC(c3cccc[n+]3[O-])CC2)C(=O)N1 [Compound 2, (+)-1,2,3,6-Tetrahydro-1-{N-[4-(2-pyridyl)piperidin-1-yl]propyl}carboxamido-5-methoxycarbonyl-4-methoxymethyl-6-(3,4-difluorophenyl)-2-oxopyrimidine-pyridine-N-oxide hydrochloride] | 1500 | 8700
4 | COCC1=C(C(=O)OC)[C@H](c2ccc(F)c(F)c2)N(C(=O)NCCC[n+]2ccc(-c3ccccn3)cc2)C(=O)N1 [Compound 3, 4-(2-Pyridyl)-1-{3-[5-carboxymethyl-4-methoxymethyl-2-oxo-6(S)-(3,4-difluorphenyl)-1,2,3,6-tetrahydropyrimidin-1-yl]carboxyaminopropyl}pyridinium chloride] | > 2000 | 9660
5 | COC(=O)C1=C(CO)NC(=O)N(C(=O)NCCCN2CCC(c3ccccn3)CC2)[C@H]1c1ccc(F)c(F)c1 [Compound 7, (+)-1,2,3,6-Tetrahydro-1-{N-[4-(2-pyridyl)piperidin-1-yl]propyl}carboxamido-5-methoxycarbonyl-4-hydroxymethyl-6-(3,4-difluorophenyl)-2-oxopyrimidine] | 530 | 1200
6 | O=C(O)CCNC(=O)N1C(=O)NC2=C(C(=O)OC2)[C@@H]1c1ccc(F)c(F)c1 [Compound 9] | > 2000 | > 50000
